Experimental data taken from paper PMC10876669, “Substrate promiscuity of inositol 1,4,5-trisphosphate kinase driven by structurally-modified ligands and active site plasticity” (Nature Communications, 2024).
Several values for one entry are separate records, joined by “and”; a condition that tells them apart may be missing. Identical values can stand only once. Entries after “also recorded” stand apart in the source; their conditions may differ.

Experiments:
[1] = molecular target: T1, IP3K-KD (Homo sapiens, UniProt P23677); assay: HPLC analysis of IP3K-KD reaction mixtures (substrate test); assay type: biochemical; settings: 150 nM IP3K-KD, 500 μM analogue, 1 mM ATP, 2 h at 30 °C, Fig. 7a
T1 construct: human IP3K-KD A isoform (residues 187–461); GST (cleaved yes); made in house; host or cells: Escherichia coli BL21 star (DE3)
Description: (§1) A construct encoding human IP3K-KD A isoform (residues 187–461) into pOPTG vector was used[16]. The protein was expressed in Escherichia coli BL21 star (DE3) strain. Cells were grown at 37 °C to OD600 = 1.0 then induced with 0.4 mM IPTG for 18 h at 16 °C. Protein purification was performed by adapting the reported protocol. Cells were resuspended in buffer A (10 mM Tris pH 7.5 [4 °C], 200 mM NaCl and 2 mM DTT) and disrupted by sonication. Clarified cell lysate was diluted 1/4 in buffer B (10 mM Tris pH 7.5 [4 °C] and 2 mM DTT) and loaded into a 5 mL HiTrap heparin column (GE Healthcare) washed by buffer C (20 mM Tris pH 7.5, 50 mM NaCl and 2 mM DTT), and eluted with a 0.05 M–1 M salt gradient. The eluted sample was subsequently loaded on to a 5 mL glutathione–Sepharose HP column (GE Healthcare), washed with buffer A and eluted with reduced glutathione 10 mM (Sigma-Aldrich) in buffer A. The GST tag was cleaved with home-made TEV (tobacco etch virus) protease overnight at 4 °C, (1:40 TEV/protein mass ratio). After glutathione removal with a PD10 column, the cleaved protein was further purified using a 5 mL glutathione–Sepharose HP column (GE Healthcare) followed by gel filtration on a 16/600 Superdex200 (GE Healthcare) column equilibrated in buffer D (20 mM Tris pH 7.5 [4 °C], 0.05 M (NH4)2SO4 and 2 mM DTT). Protein samples were analyzed by SDS/PAGE, concentrated around 18 mg/mL and stored at −80 °C until use.

[2] = molecular target: T2, IP3K-KD (human IP3K-KD A isoform, residues 187–461) (Homo sapiens, UniProt P23677); assay: Ligand displacement assay: fluorescence polarization (anisotropy) of 2-FITC-InsP3/IP3K-KD complex; assay type: binding; settings: for IC50: 100 nM IP3K-KD, 2 nM 2-FITC-InsP3, 20 mM HEPES pH 7.5, 1 mM EDTA, 50 mM KCl, n=4 replicates, 5-s and 5-p racemic, read-out: IC50, displacement of 2-FITC-InsP3 from IP3K-KD; for Kd: estimated Ki (Kd) from IC50 with [2-FITC-InsP3] 2 nM and its Kd 68 nM, read-out: Kd inferred from IC50 (Cheng and Prusoff)
T2 construct: human IP3K-KD A isoform (residues 187–461); GST (cleaved yes); made in house; host or cells: Escherichia coli BL21 star (DE3)
Description: as §1
Binding of a competing/displacing ligand to protein is observed as a decrease in the polarization (anisotropy) of 2-FITC-InsP3. A comparison of the strength of binding of enzyme substrates, analogues and products to IP3K-KD was obtained by measurement of fluorescence polarization (here anisotropy) of 2-FITC-InsP3/IP3K-KD complex. Experimentally, 100 nM IP3K-KD was mixed with 2 nM 2-FITC-InsP3[37] in 20 mM HEPES pH 7.5, 1 mM EDTA and 50 mM KCl with the addition of displacing compounds over a range of 1 nM–50 μM. Assays were analyzed using a ClarioSTAR plate reader and IC50 values determined from fit of the data to a 4-parameter logistic as described. From IC50 values, we have estimated the Ki (Kd) values for the displacing ligands using the equation of Cheng and Prusoff:[69]1 Ki=IC50/1+L/Kd where [L] is the ligand (2-FITC-InsP3) concentration and Kd the dissociation constant for its interaction with IP3K-KD. […] Consequently, the Ki values for the displacing ligands differ trivially from their IC50 values.

[3] = molecular target: T2, IP3K-KD (human IP3K-KD A isoform, residues 187–461); assay: Fluorescence thermal shift analysis (Tycho NT.6, inflection temperature Ti); assay type: binding; settings: for Ti, transition 1 (mean inflection temperature) / Ti, transition 2 (mean inflection temperature): 10 μM IP3K-KD, 100 μM chiral or 200 μM racemic ligand, AMP-PNP or ADP, 100 μM MgCl2; for Ti, transition 1 (mean inflection temperature) / Ti, transition 2 (mean inflection temperature) / ΔTi, transition 1 / ΔTi, transition 2: mean ± SD, n=3; for ΔTi, transition 1: Ti minus Ti of apo IP3K-KD (44.4); for ΔTi, transition 2: Ti minus Ti of apo IP3K-KD (53.8); for Transition 1 Ti, individual measurement / Transition 2 Ti, individual measurement: source data of Fig. 6b/6c, single replicates; for Transition 1 Dti (Ti-Ti Apo) / Transition 1 Ti Mean / Transition 2 DTi (Ti-Ti Apo) / Transition 2 Ti Mean: source data of Fig. 6c, N 3; for Stabilization of IP3K-KD by ligand (in words): thermal shift, Fig. 6c
Description: as §1
Thermal protein denaturation was documented by recording intrinsic protein fluorescence at 330 and 350 nm wavelengths. The fluorescence recorded in each thermal run is plotted as 350/330 nm ratio and used to calculate the Inflection Temperature (Ti). Ti is the temperature at which a protein undergoes a transition in its folding state. This calculation is performed automatically by the Tycho NT.6 software. The protocol optimized for this procedure, involves a heating time of 2 min, a sample volume of 10 μl placed in a very thin capillary, and a temperature ramp from 35 °C (308 K) to 95 °C (368 K). For the experiment, IP3K-KD was diluted with buffer D to achieve a concentration of 0.31 mg/mL (10 μM). It was then mixed with 100 μM of chiral ligands or 200 μM of racemic ligands (all synthesized as stated in this work except InsP3 and InsP4 that were commercial from Avanti Polar Lipids), AMP-PNP (substrate analogues) or ADP (product-like ligands) and 100 μM MgCl2. Microsoft Excel was used to calculate and plot ΔTi values and standard deviations.

T2 sequence (P23677 187-461): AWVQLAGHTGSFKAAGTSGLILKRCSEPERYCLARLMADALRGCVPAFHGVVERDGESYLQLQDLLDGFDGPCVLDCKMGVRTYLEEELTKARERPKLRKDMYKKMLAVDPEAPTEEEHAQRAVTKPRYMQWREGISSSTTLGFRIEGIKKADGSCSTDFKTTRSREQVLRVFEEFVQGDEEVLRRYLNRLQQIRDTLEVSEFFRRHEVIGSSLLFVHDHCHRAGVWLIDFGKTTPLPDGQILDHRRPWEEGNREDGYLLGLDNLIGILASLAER
T1 sequence (P23677 187-461): as above

| Compound | Ability to act as IP3K substrate (in words) [1] | IC50 [2] | Kd [2] [nM] | Ti, transition 1 (mean inflection temperature) [3] | Ti, transition 2 (mean inflection temperature) [3] | ΔTi, transition 1 [3] | ΔTi, transition 2 [3] | Transition 1 Ti, individual measurement [3] | Transition 2 Ti, individual measurement [3] | Transition 1 Dti (Ti-Ti Apo) [3] | Transition 1 Ti Mean [3] | Transition 2 DTi (Ti-Ti Apo) [3] | Transition 2 Ti Mean [3] | Stabilization of IP3K-KD by ligand (in words) [3] | Binding to IP3K (in words) ([3]; Fig. 6b,c) |
| --- | --- | --- | --- | --- | --- | --- | --- | --- | --- | --- | --- | --- | --- | --- | --- |
| O=P(O)(O)O[C@H]1[C@H](O)[C@@H](OP(=O)(O)O)[C@H](OP(=O)(O)O)[C@@H](OP(=O)(O)O)[C@H]1O [InsP4, D-myo-inositol 1,3,4,5-tetrakisphosphate, reference compound] | – | 60 nM | 58 | 53.5 ± 0.2 ºC | 58.8 ± 0.2 ºC | 9.1 ± 0.4 ºC | 5.0 ± 0.3 ºC | 53.7 and 53.3 and 53.5 | 59.0 and 58.6 and 58.7 | 9.1 | 53.5 | 5.0 | 58.8 | – | – |
| O=P(O)(O)OC[C@H]1O[C@H](CO)[C@@H](OP(=O)(O)O)[C@H](OP(=O)(O)O)[C@H]1O [7b–s, α-D-glucopyranosylmethanol 3,4,1’- trisphosphate] | weaker substrates; also recorded: poor substrate activity for IP3K | 6990 nM | 6790 | 45.6 ± 0.7 ºC | 54.4 ± 0.3 ºC | 1.2 ± 0.7 ºC | 0.6 ± 0.3 ºC | 45.4 and 45.1 and 46.4 | 54.1 and 54.6 and 54.4 | 1.2 | 45.6 | 0.567 | 54.4 | stabilize IP3K-KD much less than InsP3 | do not, or barely, bind IP3K |
| O=P(O)(O)O[C@@H]1[C@@H](O)[C@H](O)[C@@H](OP(=O)(O)O)[C@H](OP(=O)(O)O)[C@H]1O [1-s, L-scyllo-inositol 1,2,4-trisphosphate] | is a good IP3K substrate | 36 nM | 35 | 55.6 ± 0.1 ºC | 60.7 ± 0.2 ºC | 11.2 ± 0.3 ºC | 6.9 ± 0.2 ºC | 55.7 and 55.6 (2×) | 60.8 and 60.5 and 60.7 | 11.2 | 55.6 | 6.9 | 60.7 | – | – |
| O=P(O)(O)O[C@@H]1[C@@H](O)[C@H](OP(=O)(O)O)[C@@H](OP(=O)(O)O)[C@H](OP(=O)(O)O)[C@H]1O [1-p, scyllo-inositol 1,2,3,5-tetrakisphosphate] | – | 51 nM | 50 | 54.7 ± 0.2 ºC | 59.9 ± 0.2 ºC | 10.3 ± 0.3 ºC | 6.1 ± 0.2 ºC | 54.7 and 54.9 and 54.6 | 59.7 and 60.0 and 59.9 | 10.3 | 54.7 | 6.1 | 59.9 | – | – |

Now from value to molecule:

| Ability to act as IP3K substrate (in words) [1] | IC50 [2] | Kd [2] [nM] | Ti, transition 1 (mean inflection temperature) [3] | Ti, transition 2 (mean inflection temperature) [3] | ΔTi, transition 1 [3] | ΔTi, transition 2 [3] | Transition 1 Ti, individual measurement [3] | Transition 2 Ti, individual measurement [3] | Transition 1 Dti (Ti-Ti Apo) [3] | Transition 1 Ti Mean [3] | Transition 2 DTi (Ti-Ti Apo) [3] | Transition 2 Ti Mean [3] | Stabilization of IP3K-KD by ligand (in words) [3] | Binding to IP3K (in words) ([3]; Fig. 6b,c) | Compound |
| --- | --- | --- | --- | --- | --- | --- | --- | --- | --- | --- | --- | --- | --- | --- | --- |
| weaker substrates | 8980 nM | 8720 | 45.7 ± 0.5 ºC | 54.6 ± 0.0 ºC | 1.3 ± 0.6 ºC | 0.8 ± 0.2 ºC | 45.5 and 46.3 and 45.3 | 54.6 | 1.3 | 45.7 | 0.8 | 54.6 | stabilize IP3K-KD much less than InsP3 | – | O=P(O)(O)O[C@H]1O[C@H](CO)[C@@H](OP(=O)(O)O)[C@H](OP(=O)(O)O)[C@H]1O [6b–s, α-D-glucopyranosyl 1,3,4-trisphosphate] |
| – | 140 nM and 139 nM | 136 | 52.9 ± 0.2 ºC | 58.2 ± 0.2 ºC | 8.5 ± 0.3 ºC | 4.4 ± 0.2 ºC | 52.8 and 52.9 and 53.1 | 58.1 (2×) and 58.4 | 8.5 | 52.9 | 4.4 | 58.2 | – | – | O=P(O)(O)O[C@@H]1[C@H](O)[C@H](O)[C@@H](OP(=O)(O)O)[C@H](OP(=O)(O)O)[C@H]1O [InsP3, D-myo-inositol 1,4,5-trisphosphate, reference compound] |
| are also substrates | 205 nM | 199 | 51.5 ± 0.2 ºC | 57.3 ± 0.1 ºC | 7.1 ± 0.3 ºC | 3.5 ± 0.2 ºC | 51.4 and 51.5 and 51.7 | 57.4 (2×) and 57.2 | 7.1 | 51.5 | 3.5 | 57.3 | – | – | O=P(O)(O)O[C@@H]1O[C@H](CO)[C@@H](OP(=O)(O)O)[C@H](OP(=O)(O)O)[C@H]1O [6a–s, β-D-glucopyranosyl 1,3,4-trisphosphate] |
| are also substrates | 656 nM | 637 | 49.7 ± 0.4 ºC | 56.1 ± 0.3 ºC | 5.3 ± 0.5 ºC | 2.3 ± 0.3 ºC | 50.2 and 49.5 and 49.4 | 55.9 and 56.1 and 56.4 | 5.3 | 49.7 | 2.3 | 56.1 | – | – | O=P(O)(O)OC[C@@H]1O[C@H](CO)[C@@H](OP(=O)(O)O)[C@H](OP(=O)(O)O)[C@H]1O [7a–s, β-D-glucopyranosylmethanol 3,4,1’-trisphosphate] |
